Test results taken from US6372446B1, “Method of selectively determining a fungal biomass” (Mycometer ApS, priority 1997, dated 2002).

Legend:
Assay in all cases: Screening of fungi for enzyme activity with 4-methylumbelliferone-labelled substrates
Type in all cases: cell-based
[1] = system: Aureobasidium pullulans (QM 3092); conditions: substrate 10 μM, 25° C., pH 5; for Enzyme activity: amount of released 4-methylumbelliferone during 5 hours of incubation: Aureobasidium pulluians (QM 3092), vegetable juice medium; for Enzyme activity: amount of released 4-methylumbelliferone: Aureobasidium pullulans (QM 3092), mineral medium
[2] = system: Paecilomyces farinosus (AGM 5); conditions: substrate 10 μM, 25° C., pH 5; for Enzyme activity: amount of released 4-methylumbelliferone: mineral medium; for Enzyme activity: amount of released 4-methylumbelliferone during 5 hours of incubation: vegetable juice medium
[3] = system: Cladosporium herbarum (AGM 8); conditions: substrate 10 μM, 25° C., pH 5; for Enzyme activity: amount of released 4-methylumbelliferone: mineral medium; for Enzyme activity: amount of released 4-methylumbelliferone during 5 hours of incubation: vegetable juice medium
[4] = system: Penicillium commune (IBT 13713); conditions: substrate 10 μM, 25° C., pH 5; for Enzyme activity: amount of released 4-methylumbelliferone: mineral medium; for Enzyme activity: amount of released 4-methylumbelliferone during 5 hours of incubation: vegetable juice medium
[5] = system: Penicillium solitum (IBT 13771); conditions: substrate 10 μM, 25° C., pH 5; for Enzyme activity: amount of released 4-methylumbelliferone: mineral medium; for Enzyme activity: amount of released 4-methylumbelliferone during 5 hours of incubation: vegetable juice medium
[6] = system: Aspergillus oryzae (AGM 11); conditions: substrate 10 μM, 25° C., pH 5; for Enzyme activity: amount of released 4-methylumbelliferone: mineral medium; for Enzyme activity: amount of released 4-methylumbelliferone during 5 hours of incubation: vegetable juice medium
[7] = system: Mucor racemosus (AAS 310); conditions: substrate 10 μM, 25° C., pH 5; for Enzyme activity: amount of released 4-methylumbelliferone: mineral medium; for Enzyme activity: amount of released 4-methylumbelliferone during 5 hours of incubation: vegetable juice medium
[8] = system: Ascobolus crenulatus (AAS 1); conditions: substrate 10 μM, 25° C., pH 5; for Enzyme activity: amount of released 4-methylumbelliferone: mineral medium; for Enzyme activity: amount of released 4-methylumbelliferone during 5 hours of incubation: vegetable juice medium
[9] = system: Trametes versicolor (AGM 24); conditions: substrate 10 μM, 25° C., pH 5; for Enzyme activity: amount of released 4-methylumbelliferone: mineral medium; for Enzyme activity: amount of released 4-methylumbelliferone during 5 hours of incubation: vegetable juice medium
[10] = system: Rhizomucor pusillus (AAS 300); conditions: substrate 10 μM, 25° C., pH 5; for Enzyme activity: amount of released 4-methylumbelliferone: mineral medium; for Enzyme activity: amount of released 4-methylumbelliferone during 5 hours of incubation: vegetable juice medium
[11] = system: Schizophyllum commune (AGM 25); conditions: substrate 10 μM, 25° C., pH 5; for Enzyme activity: amount of released 4-methylumbelliferone: mineral medium; for Enzyme activity: amount of released 4-methylumbelliferone during 5 hours of incubation: vegetable juice medium
[12] = system: Sodaria fimicola (AAS 17); conditions: substrate 10 μM, 25° C., pH 5; for Enzyme activity: amount of released 4-methylumbelliferone: mineral medium; for Enzyme activity: amount of released 4-methylumbelliferone during 5 hours of incubation: vegetable juice medium
Eurotium sp. (AAS 36) = conditions: substrate 10 μM, 25° C., pH 5; for Enzyme activity: amount of released 4-methylumbelliferone: mineral medium; for Enzyme activity: amount of released 4-methylumbelliferone during 5 hours of incubation: vegetable juice medium
[13] = system: Aspergillus versicolor (IBT 13738); conditions: substrate 10 μM, 25° C., pH 5; for Enzyme activity: amount of released 4-methylumbelliferone: mineral medium; for Enzyme activity: amount of released 4-methylumbelliferone during 5 hours of incubation: vegetable juice medium

Enzyme activity: amount of released 4-methylumbelliferone during 5 hours of incubation [1]	Enzyme activity: amount of released 4-methylumbelliferone [1]	Enzyme activity: amount of released 4-methylumbelliferone [2] [µmol]	Enzyme activity: amount of released 4-methylumbelliferone during 5 hours of incubation [2] [µmol]	Enzyme activity: amount of released 4-methylumbelliferone [3] [µmol]	Enzyme activity: amount of released 4-methylumbelliferone during 5 hours of incubation [3] [µmol]	Enzyme activity: amount of released 4-methylumbelliferone [4] [µmol]	Enzyme activity: amount of released 4-methylumbelliferone during 5 hours of incubation [4]	Enzyme activity: amount of released 4-methylumbelliferone [5] [µmol]	Enzyme activity: amount of released 4-methylumbelliferone during 5 hours of incubation [5] [µmol]	Enzyme activity: amount of released 4-methylumbelliferone [6] [µmol]	Enzyme activity: amount of released 4-methylumbelliferone during 5 hours of incubation [6]	Enzyme activity: amount of released 4-methylumbelliferone [7] [µmol]	Enzyme activity: amount of released 4-methylumbelliferone during 5 hours of incubation [7]	Enzyme activity: amount of released 4-methylumbelliferone [8] [µmol]	Enzyme activity: amount of released 4-methylumbelliferone during 5 hours of incubation [8]	Enzyme activity: amount of released 4-methylumbelliferone [9] [µmol]	Enzyme activity: amount of released 4-methylumbelliferone during 5 hours of incubation [9] [µmol]	Enzyme activity: amount of released 4-methylumbelliferone [10] [µmol]	Enzyme activity: amount of released 4-methylumbelliferone during 5 hours of incubation [10]	SMILES	other results
** (1 ≦ ** 2)	0 µmol	0	0	0	0	0	* (0.4 ≦ * < 1)	0	0	0	*** (2 ≦ ***)	0	** (1 ≦ ** 2)	0	* (0.4 ≦ * < 1)	0	0	0	0 µmol	Cc1cc(=O)oc2cc(O[C@@H]3O[C@H](CO)[C@@H](O)[C@H](O)[C@@H]3O)ccc12 [substrate 6, 4-methylumbelliferyl β-D-mannopyranoside]	Enzyme activity: amount of released 4-methylumbelliferone [11]: 0 µmol; Enzyme activity: amount of released 4-methylumbelliferone during 5 hours of incubation [11]: *** (2 ≦ ***); Enzyme activity: amount of released 4-methylumbelliferone [12]: 0 µmol; Enzyme activity: amount of released 4-methylumbelliferone during 5 hours of incubation [12]: *** (2 ≦ ***); Enzyme activity: amount of released 4-methylumbelliferone (Eurotium sp. (AAS 36)): 0 µmol; Enzyme activity: amount of released 4-methylumbelliferone during 5 hours of incubation (Eurotium sp. (AAS 36)): 0 µmol; Enzyme activity: amount of released 4-methylumbelliferone [13]: 0 µmol; Enzyme activity: amount of released 4-methylumbelliferone during 5 hours of incubation [13]: 0 µmol
0 µmol	0 µmol	0	0	0	0	0	0 µmol	0	0	0	* (0.4 ≦ * < 1)	0	0 µmol	0	0 µmol	0	0	0	* (0.4 ≦ * < 1)	Cc1cc(=O)oc2cc(O[C@@H]3O[C@H](CO)[C@@H](O[C@@H]4O[C@H](CO)[C@H](O)[C@H](O)[C@H]4O)[C@H](O)[C@H]3O)ccc12 [substrate 8, 4-methylumbelliferyl β-D-lactoside]	Enzyme activity: amount of released 4-methylumbelliferone [11]: 0 µmol; Enzyme activity: amount of released 4-methylumbelliferone during 5 hours of incubation [11]: ** (1 ≦ ** 2); Enzyme activity: amount of released 4-methylumbelliferone [12]: 0 µmol; Enzyme activity: amount of released 4-methylumbelliferone during 5 hours of incubation [12]: ** (1 ≦ ** 2); Enzyme activity: amount of released 4-methylumbelliferone (Eurotium sp. (AAS 36)): 0 µmol; Enzyme activity: amount of released 4-methylumbelliferone during 5 hours of incubation (Eurotium sp. (AAS 36)): 0 µmol; Enzyme activity: amount of released 4-methylumbelliferone [13]: 0 µmol; Enzyme activity: amount of released 4-methylumbelliferone during 5 hours of incubation [13]: 0 µmol
*** (2 ≦ ***)	*** (2 ≦ ***)	0	0	0	0	0	0 µmol	0	0	0	0 µmol	0	0 µmol	0	0 µmol	0	0	0	* (0.4 ≦ * < 1)	Cc1cc(=O)oc2cc(O[C@H]3O[C@H](CO)[C@@H](O)[C@H](O)[C@H]3O)ccc12 [substrate 7, 4-methylumbelliferyl α-D-glucoside]	Enzyme activity: amount of released 4-methylumbelliferone [11]: 0 µmol; Enzyme activity: amount of released 4-methylumbelliferone during 5 hours of incubation [11]: 0 µmol; Enzyme activity: amount of released 4-methylumbelliferone [12]: 0 µmol; Enzyme activity: amount of released 4-methylumbelliferone during 5 hours of incubation [12]: ** (1 ≦ ** 2); Enzyme activity: amount of released 4-methylumbelliferone (Eurotium sp. (AAS 36)): 0 µmol; Enzyme activity: amount of released 4-methylumbelliferone during 5 hours of incubation (Eurotium sp. (AAS 36)): 0 µmol; Enzyme activity: amount of released 4-methylumbelliferone [13]: 0 µmol; Enzyme activity: amount of released 4-methylumbelliferone during 5 hours of incubation [13]: 0 µmol
0 µmol	* (0.4 ≦ * < 1)	0	0	0	0	0	0 µmol	0	0	0	0 µmol	0	** (1 ≦ ** 2)	0	0 µmol	0	0	0	*** (2 ≦ ***)	Cc1cc(=O)oc2cc(O[C@H]3O[C@H](C)[C@H](O)[C@H](O)[C@H]3O)ccc12 [substrate 10, 4-methylumbelliferyl α-D-fucoside]	Enzyme activity: amount of released 4-methylumbelliferone [11]: 0 µmol; Enzyme activity: amount of released 4-methylumbelliferone during 5 hours of incubation [11]: 0 µmol; Enzyme activity: amount of released 4-methylumbelliferone [12]: 0 µmol; Enzyme activity: amount of released 4-methylumbelliferone during 5 hours of incubation [12]: 0 µmol; Enzyme activity: amount of released 4-methylumbelliferone (Eurotium sp. (AAS 36)): 0 µmol; Enzyme activity: amount of released 4-methylumbelliferone during 5 hours of incubation (Eurotium sp. (AAS 36)): 0 µmol; Enzyme activity: amount of released 4-methylumbelliferone [13]: 0 µmol; Enzyme activity: amount of released 4-methylumbelliferone during 5 hours of incubation [13]: 0 µmol
